In patent US5756458A, “Stabilized potent GRF analogs” (Pharmacia & Upjohn Company, priority 1995, dated 1998):
Where two headings read alike, the source gives them in different places. Where no end group is shown, it is not given here.

Experiments:
[1] = system: primary cultures of rat anterior pituitary cells; settings: GH secretion; cited from earlier work
[2] = In vitro stability in bovine plasma; assay type: in vitro ADME
Experimental: | ^.noteq. Peptides at 0.03 mM were incubated with bovine plasma at | 37° C. for one hr. Aliquots of 0.1 ml were quenched with 2 ml of | 0.2% aqueous trifluoroacetic acid solution and subjected to solid phase | extraction and HPLC analysis as described in T.M. Kubiak et al. Drug Met. | Disp. 17, 393-397 (1989).

[3] = system: Steers; assay type: in vivo, steer; settings: STUDY II, subcutaneous 0.75 nmol/kg, area under serum GH curve, 6 hrs after treatment, bGRF(1-44)NH2 = 100
Experimental: | ^.sctn. Steers were injected subcutaneously with peptides at the dose | of 0.75 nmol/kg. Relative potency was calculated on the basis of the area | under serum GH curve monitored for 6 hrs after treatment.

[4] = system: Steers; assay type: in vivo, steer
Experimental: | ^# Steers were injected iv with peptides at the dose of 0.01 nmol/kg | and the procedures were as described in W.M. Moseley et al. J. Endocr. | 117, 253-259 (1988). Relative potency was calculated on the basis of the | area under serum growth hormone (GH) curve monitored for 2 hrs after | treatment.

[5] = biological target: T1, plasma DPP-IV (Bos taurus, UniProt P81425); experiment: Cleavage after residue 2 by plasma DPP-IV on incubation in bovine plasma in vitro; assay type: in vitro ADME; parameters: Cleavage after residue 2 (footnote mark ++): key to the marks not given beside the values
T1 construct: from tissue; host or cells: bovine plasma (two different plasma pools)
T1 sequence (P81425 38-765 limits assumed): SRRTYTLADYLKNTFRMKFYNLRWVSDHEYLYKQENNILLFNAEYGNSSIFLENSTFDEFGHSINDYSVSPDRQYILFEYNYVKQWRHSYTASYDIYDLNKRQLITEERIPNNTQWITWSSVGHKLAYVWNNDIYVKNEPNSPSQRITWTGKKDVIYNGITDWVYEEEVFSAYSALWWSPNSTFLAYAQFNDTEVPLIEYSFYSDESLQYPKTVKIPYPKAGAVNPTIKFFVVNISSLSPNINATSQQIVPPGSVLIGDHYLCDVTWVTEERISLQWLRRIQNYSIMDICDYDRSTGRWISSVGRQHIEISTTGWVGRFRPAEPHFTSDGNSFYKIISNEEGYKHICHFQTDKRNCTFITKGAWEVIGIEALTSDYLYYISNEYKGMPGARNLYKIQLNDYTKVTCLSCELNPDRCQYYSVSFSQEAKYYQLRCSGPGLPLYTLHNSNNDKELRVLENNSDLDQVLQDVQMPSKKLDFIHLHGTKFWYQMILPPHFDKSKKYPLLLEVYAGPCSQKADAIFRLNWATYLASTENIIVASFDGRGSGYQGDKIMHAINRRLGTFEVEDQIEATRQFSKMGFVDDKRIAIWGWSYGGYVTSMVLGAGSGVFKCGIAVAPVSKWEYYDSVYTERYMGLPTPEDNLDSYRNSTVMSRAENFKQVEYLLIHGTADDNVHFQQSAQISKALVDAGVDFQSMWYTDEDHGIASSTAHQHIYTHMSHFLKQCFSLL
Experimental: Evidence of the improved metabolic stability of the compounds of this invention (when compared to native GRF) is illustrated in Table I by the in vitro stability data provided. It is noteworthy that in bovine plasma in vitro, the analogs having Thr^2, Val^2, Ile^2 or Leu^2 were not cleaved after residue 2 by plasma DPP-IV under the experimental conditions used in the study (one hour plasma incubation).
++ No cleavage after residue 2 was observed upon incubation in bovine
plasma in vitro over a 1 hr incubation period.

[6] = system: meal-fed Holstein steers; experiment: Mean serum GH in meal-fed Holstein steers after intravenous injection (FIG. 2); assay type: in vivo; settings: dose of 0.01 nmol/kg (10 pmol/kg)
Experimental: The enhanced in vivo potency of the compounds of this invention where R19 is Val or Ile is illustrated in FIGS. 1 and 2.
Mean concentration of serum growth hormone (GH) in meal-fed Holstein steers after intravenous injection (10 pmol/kg) of GRF analogs. The assay was performed as described by Moseley et al., J. Endocrinol. 117, 252-259 (1988). Bovine GRF(1-44)NH2 was used as the assay standard.

[7] = system: rat pituitary cell cultures; experiment: Growth hormone (GH) release in rat pituitary cell cultures in vitro (FIG. 1); assay type: cell-based; settings: Leu^27 -bGRF(1-29)NH2 assay standard
Experimental: Effect of analogs of Thr^2, Ala^15, Leu^27 -bGRF(1-29)NH2 on growth hormone (GH) release in rat pituitary cell cultures in vitro. The assay was performed according to procedure of Frohman and Downs, Methods Enzymol. 124, 371-389 (1986). […] Leu^27 -bGRF(1-29)NH2 was used as the assay standard.

[8] = bovine plasma, STUDY II, plasma pool 2, peptide 0.03 mM, bovine plasma, 37° C., one hr, read-out: In vitro stability (% Inact peptide after 1 hr)
[9] = bovine plasma, STUDY I, plasma pool 1, peptide 0.03 mM, bovine plasma, 37° C., one hr, read-out: In vitro stability (% Inact peptide after 1 hr)

H-Tyr-Ala-Asp-Ala-Ile-Phe-Ser-Ser-Ala-Tyr-Arg-Arg-Leu-Leu-Ala-Gln-Leu-Ala- Ser-Arg-Arg-Leu-Leu-Gln-Glu-Leu-Leu-Ala-Arg-NH2 /OH [amide analog] (H-YADAIFSSAYRRLLAQLASRRLLQELLAR-NH2) [29-amino acid analog of hGRF designed by G. Velicelebi, et al., amide form]
Potency relative to hGRF(1-40)OH (times as potent) [1]: 1.57

H-Tyr-Ala-Asp-Ala-Ile-Phe-Ser-Ser-Ala-Tyr-Arg-Arg-Leu-Leu-Ala-Gln-Leu-Ala- Ser-Arg-Arg-Leu-Leu-Gln-Glu-Leu-Leu-Ala-Arg-NH2 /OH [free acid form] (H-YADAIFSSAYRRLLAQLASRRLLQELLAR-OH) [29-amino acid analog of hGRF designed by G. Velicelebi, et al., free acid form]
Potency relative to hGRF(1-40)OH (times as potent) [1]: 1/6

H-YIDAIFTNSYRKVLAQLSARKLLQDILNR-NH2 [Ile^2,Ala^15,Leu^27-bGRF(1-29)NH2]
remaining at 1 h, 0.03 mM [2, 8]: 80.3% | In vivo relative potency sc [3]: 16c | Expected potency relative to isomer Leu^2 Ala^15 Leu^27 bGRF(1-29)NH2 when the ED50 of each is determined and compared ([4]; extrapolated from relative in vivo potency at 0.01 nmol/kg, ED50 not determined): 10-20 times

H-YTDAIFTNSYRKVLAQLSARKLLQDILNR-NH2 [Thr^2,Ala^15,Leu^27-bGRF(1-29)NH2]
Cleavage after residue 2 (footnote mark ++) [5]: ++ | DPP-IV related cleavage [5]: slight DPP-IV related cleavage | remaining at 1 h, 0.03 mM ([2]; plasma, In vitro stability (% Inact peptide after 1 hr)): 91.1%

H-YTDAIFTNSYRKVLAQLSVRKLLQDILNR-NH2
In vivo bioactivity compared with native GRF [6]: more bioactive than the native GRF | GH-releasing bioactivity in vitro as compared with Thr^2, Ala^15, Leu^27 -bGRF(1-29)NH2 [7]: increased

H-YVDAIFTNSYRKVLAQLSARKLLQDILNR-NH2 [Val^2,Ala^15,Leu^27-bGRF(1-29)NH2]
remaining at 1 h, 0.03 mM [2, 8]: 83.4%

YADAIFTNSYRKVLAQLSARKLLQDILNR-NH2 [Ala^15,Leu^27-bGRF(1-29)NH2, reference compound]
remaining at 1 h, 0.03 mM [2, 9]: 56.2%

YADAIFTNSYRKVLGQLSARKLLQDILNR-NH2 [Leu^27-bGRF(1-29)NH2, reference compound]
remaining at 1 h, 0.03 mM [2, 9]: 39.8% | remaining at 1 h, 0.03 mM [2, 8]: 46.8%

YLDAIFTNSYRKVLAQLSARKLLQDILNR-NH2 [Leu^2,Ala^15,Leu^27-bGRF(1-29)NH2, reference compound]
remaining at 1 h, 0.03 mM [2, 8]: 86.3%

YTDAIFTNSYRKVLAQLSIRKLLQDILNR-NH2
In vivo bioactivity compared with native GRF [6]: more bioactive than the native GRF | GH-releasing bioactivity in vitro as compared with Thr^2, Ala^15, Leu^27 -bGRF(1-29)NH2 [7]: unchanged

YTDAIFTNSYRKVLAQLSLRKLLQDILNR-NH2 [Leu^19]
GH-releasing bioactivity in vitro as compared with Thr^2, Ala^15, Leu^27 -bGRF(1-29)NH2 [7]: deleterious

YTDAIFTNSYRKVLGQLSARKLLQDILNR-NH2 [Thr^2,Leu^27-bGRF(1-29)NH2]
remaining at 1 h, 0.03 mM [2, 9]: 75.6%

bGRF(1-14)NH2 [reference compound]
In vivo relative potency iv ([4]; STUDY I, steers, iv 0.01 nmol/kg, area under serum GH curve, 2 hrs after treatment, native bGRF standard = 100): 100
